Experimental data from US11691992B2 (Anacor Pharmaceuticals, Inc., priority 2017, dated 2023).
Read-outs that look alike come from different tables or passages of the source.

Key:
Type in all cases: cell-based
[1] = test system: bloodstream-form trypanosome T. brucei brucei 427 strain; test: Trypanosoma brucei brucei high-throughput screening assay (resazurin)
[2] = test system: STIB719/ILRAD560 T. vivax (drug sensitive) strain; test: Ex vivo Alamar Blue 48 h drug sensitivity assay for T. vivax; settings: Trypanosoma vivax, ex vivo bloodstream forms from mouse, 45 hrs + 3 hrs resazurin, read-out: IC50: I Hypoxanthine Incorporation T. vivax STIB 719/ILRA D 560, 2 d
Description: Example 109. Ex Vivo Alamar Blue 48 h Drug Sensitivity Assay for T. vivax
[…] Test compounds were prepared as 10 mg/mL DMSO stocks for each assay run. Compounds were assayed in at least three separate, independent test runs and an 11-point dilution curve was used to determine the IC50 values. Bloodstream form trypanosomes were propagated and harvested from a highly parasitemic mouse (via cardiac puncture) and were incubated with test compounds for 45 hrs at 37° C. in a humidified atmosphere containing 5% CO2, supported in HMI media containing 20% bovine serum. […] Plates were then read using a fluorescent plate reader (Spectramax, Gemini XS, Bucher Biotec, Basel, Switzerland) using an excitation wavelength of 536 nm and an emission wavelength of 588 nm. Data points were averaged to generate sigmoidal dose-response curves and IC50 values were determined using Softmax Pro 5.2 software.

[3] = test system: T. cruzi Tulahuen strain C2C4 containing the β-galactosidase (Lac Z) gene in rat skeletal myoblasts (L-6 cells); test: Trypanosoma cruzi C2C4 screening assay
Description: Example 113: Trypanosoma cruzi C2C4 Screening Assay Procedure
Rat skeletal myoblasts (L-6 cells) were seeded in 96-well microtiter plates at 2×10^3 cells/well in 100 μL RPMI 1640 medium with 10% FBS and 2 mM L-glutamine. After 24 h the medium was removed and replaced by 100 μL per well containing 5×10^3 trypomastigote forms of T. cruzi Tulahuen strain C2C4 containing the β-galactosidase (Lac Z) gene (Buckner, et al., Antimicrobial Agents and Chemotherapy, 40: 2592-2597 (1996)). After 48 h the medium was removed from the wells and replaced by 100 μL fresh medium with or without a serial drug dilution of the seven 3-fold dilution steps covering a range from 90 to 0.123 μg/mL. After 96 h of incubation the plates were inspected under an inverted microscope to assure growth of the controls and sterility. The substrate (50 μL) chlorophenol red-β-D-galactopyranoside (CPRG, Roche Diagnostics, Ltd) in 0.25% Nonidet P-40/PBS was added to all wells and a color reaction developed within 2-6 h which was read photometrically at 540 nm. Data were transferred into the graphic program Softmax Pro (Molecular Devices), which calculated IC50 values.

[4] = test system: Trypanosoma brucei rhodesiense STIB 900 strain; test: Trypanosoma brucei rhodesiense STIB 900 screening assay; settings: 72 h
Procedure, shortened: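 Bloodstream forms of T. b. rhodesiense STIB 900 (10^4 per well) cultured with seven 3-fold drug dilutions (90 to 0.123 μg/mL) in MEM with 15% horse serum, 72 h, 37 °C, 5% CO2. Alamar Blue added for 2-4 h more; fluorescence read at ex 536/em 588 nm for IC50.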

[5] = bloodstream form, 72 hrs incubation, resazurin, read-out: IC50: I Org. Growth T. brucei brucei SBRI 427, 3 d
[6] = L6, in L-6 cells, 96 h, CPRG, read-out: SCYNEXIS IC50: I Org. Growth T. cruzi Tulahuen C2C4 Lac Z, 4 d
[7] = STIB 900 bloodstream forms, Alamar Blue, protocol of Example 114, read-out: Swiss TPH T b rhodesiense IC50
[8] = 72 h, read-out: IC50: I Org. Growth T. brucei brucei SBRI 427, 3 d [uM]
[9] = L6, 96 h, read-out: SCYNEXIS IC50: I Org. Growth T. cruzi Tulahuen C2C4 Lac Z, 4 d [uM]
[10] = read-out: Swiss TPH T b rhodesiense IC50

SMILES	IC50 [1, 5] [µM]	IC50 [4, 7] [nM]	also measured
O=C(Nc1ccc2c(c1)B(O)OC2)c1cn(-c2ccc(F)cc2)nn1 [Example 60, 1-(4-Fluorophenyl)-N-(1-hydroxy-1,3-dihydrobenzo[c][1,2]oxaborol-6-yl)-1H-1,2,3-triazole-4-carboxamide]	0.075 to 0.15	< 100	IC50 [2]: 201 to 500 nM; IC50 [3, 6]: 0.06 to 0.1 µM
O=C(Nc1ccc2c(c1)B(O)OC2)c1cn(-c2ccccn2)nn1 [Example 61, N-(1-hydroxy-1,3-dihydrobenzo[c][1,2]oxaborol-6-yl)-1-(pyridin-2-yl)-1H-1,2,3-triazole-4-carboxamide]	< 0.075	100 to 250	IC50 [3, 6]: < 0.06 µM
O=C(Nc1ccc2c(c1)B(O)OC2)c1nnn(-c2ccccc2F)c1C(F)(F)F [Example 67, 1-(2-Fluorophenyl)-N-(1-hydroxy-1,3-dihydrobenzo[c][1,2]oxaborol-6-yl)-5-(trifluoromethyl)-1H-1,2,3-triazole-4-carboxamide]		100 to 250	
O=C(Nc1ccc2c(c1)B(O)OC2)c1nnn(-c2ccccc2)c1C(F)(F)F [Example 68, N-(1-hydroxy-1,3-dihydrobenzo[c][1,2]oxaborol-6-yl)-1-phenyl-5-(trifluoromethyl)-1H-1,2,3-triazole-4-carboxamide]			IC50 [1, 8]: 0.151 to 10 µM; IC50 [3, 9]: 0.11 to 1 µM; IC50 [4, 10]: < 100 nM
O=C(Nc1ccc2c(c1)B(O)OC2)c1nnn(-c2cccc(F)c2)c1C(F)(F)F [Example 69, 1-(3-Fluorophenyl)-N-(1-hydroxy-1,3-dihydrobenzo[c][1,2]oxaborol-6-yl)-5-(trifluoromethyl)-1H-1,2,3-triazole-4-carboxamide]		100 to 250	
O=C(Nc1ccc2c(c1)B(O)OC2)c1nnn(-c2ccc(F)cc2)c1C(F)(F)F [Example 70, 1-(4-Fluorophenyl)-N-(1-hydroxy-1,3-dihydrobenzo[c][1,2]oxaborol-6-yl)-5-(trifluoromethyl)-1H-1,2,3-triazole-4-carboxamide]		100 to 250	
O=C(Nc1ccc2c(c1)B(O)OC2)c1nnn(-c2cccnc2)c1C(F)(F)F [Example 71, N-(1-hydroxy-1,3-dihydrobenzo[c][1,2]oxaborol-6-yl)-1-(pyridin-3-yl)-5-(trifluoromethyl)-1H-1,2,3-triazole-4-carboxamide]		100 to 250	
Cc1c(C(=O)Nc2ccc3c(c2)B(O)OC3)nnn1-c1ccccn1 [Example 84, N-(1-hydroxy-1,3-dihydrobenzo[c][1,2]oxaborol-6-yl)-5-methyl-1-(pyridin-2-yl)-1H-1,2,3-triazole-4-carboxamide]	< 0.075		IC50 [3, 6]: < 0.06 µM
Cc1c(C(=O)Nc2ccc3c(c2)B(O)OC3)nnn1-c1ccccc1 [Example 89, A-(1-hydroxy-1,3-dihydrobenzo[c][1,2]oxaborol-6-yl)-5-methyl-1-phenyl-1H-1,2,3-triazole-4-carboxamide]			IC50 [1, 8]: < 0.075 µM; IC50 [3, 9]: < 0.06 µM; IC50 [4, 10]: < 100 nM
COc1ccc(-n2nnc(C(=O)Nc3ccc4c(c3)B(O)OC4)c2C)cc1 [Example 91, N-(1-hydroxy-1,3-dihydrobenzo[c][1,2]oxaborol-6-yl)-1-(4-methoxyphenyl)-5-methyl-1H-1,2,3-triazole-4-carboxamide]	< 0.075		
Cc1c(C(=O)Nc2ccc3c(c2)B(O)OC3)nnn1-c1cccnc1 [Example 93, N-(1-hydroxy-1,3-dihydrobenzo[c][1,2]oxaborol-6-yl)-5-methyl-1-(pyridin-3-yl)-1H-1,2,3-triazole-4-carboxamide]		260 to 2000	
